Entries after “also recorded” stand apart in the source; their conditions may differ. Where two headings read alike, the source gives them in different places. Square brackets hold non-standard residues; d marks the D form. Ends that are not written are not given here.
Columns and labels:
[1] = system: γ-thrombin-induced platelet aggregation; assay: γ-thrombin-induced platelet aggregation in human platelet-rich plasma; format: cell-based; details: for inhibition of γ-thrombin-induced platelet aggregation (in words): assay like Example 1A
Description: For human platelet aggregation studies, 50 ml human blood was collected into a syringe containing 5 ml of 0.013 M sodium citrate. The anticoagulated blood was centrifuged at 180 xg for 10 minutes at room temperature and the platelet-rich plasma was the supernatant. Platelet aggregation studies in platelet-rich plasma were performed in the cuvette of an aggregometer using γ-thrombin (Haematologic Technologies, Essex Junction, Vt.). After standardization of the aggregometer, the threshold dose of γ-thrombin, defined as the minimal concentration that will induce full platelet aggregation, was ascertained for each preparation of platelet-rich plasma. Typically, the threshold dose of γ-thrombin was between 5 and 30 nM.
Various concentrations of the peptide being tested were added to the platelet-rich plasma in the cuvette of the aggregometer. Platelet aggregation was induced by the addition of γ-thrombin. The degree of platelet aggregation was determined by measuring (in arbitrary units) the increase in light transmission through the stirred suspension of platelet-rich plasma. […]
The peptides synthesized in Example 4 were assayed for the ability to inhibit γ-thrombin-induced platelet aggregation in platelet-rich plasma.

[2] = system: fibroblasts (thrombin receptor, PAR 1); assay: α-thrombin-induced calcium mobilization in fibroblasts; format: cell-based
Description: A variation of the calcium mobilization assay uses fibroblasts (which express a single receptor for thrombin, PAR 1), umbilical vein endothelial cells, or other cells which express the cloned thrombin receptor, and which grow in monolayers on the bottom of plastic wells.
Fibroblasts or endothelial cells were grown in 24-96 well plates and loaded with the fluorescent Ca^2+ indicator fura-2 acetyloxymethylester (5 μM, Molecular Probes Inc.) by incubation for 60 min. in HEPES-Tyrode's buffer at 37° C. After washing the cells, the fluorescence of the cells was monitored on a thermostatically controlled heated pad at 37° C. for 1 min, then the cells were incubated with α-thrombin (1 to 5 nM) in the absence or presence of a BK analog. Fluorescence was detected by a Perkin-Elmer LS-50B Luminescence Spectrofluorometer. Excitation was measured at 340 and 380 nm wavelength and emission was assessed at 510 nm. The cytosolic Ca^2+ levels were determined as described above. The Rmax value was determined using 10 mM Ca^2+ in the presence of 20 μM Ionophor A23187; Rmin was determined in the presence of 20 mM EDTA.
The ability of BK analogs to inhibit α-thrombin-induced calcium mobilization in fibroblasts and human umbilical vein endothelial cells (HUVEC) was assayed as described in Example 1C.

[3] = target: T1, NAT12 (thrombin receptor cleavage site) (Homo sapiens, UniProt P25116); assay: Binding of biotinylated NAT12 to peptides linked to microtiter plates; details: peptide linked to microtiter plate
T1 construct: spans amino acids 35-46 of the α-thrombin cleavage site on the thrombin receptor
Description: (§1) Peptides from a combinatorial library are linked to microtiter plates and the wells are blocked with 1% BSA. Biotinylated-NAT12 is incubated with the microtiter plates. After washing, the presence of biotin-NAT12 attached to the matrix support expressing peptides is detected by incubation with ImmunoPure streptavidin horseradish peroxidase conjugate (Pierce Chemical Co., Rockville Ill.) followed by peroxidase-specific fast reacting substrate, turbo-3,3′,5,5′-tetramethylbenzidine (turbo-TMB, Pierce Chemical Co., Rockville Ill.). After incubation for 5 min at room temperature, the color reaction of the turbo-TMB is stopped by the addition of 1 M phosphoric acid. The bound peptide is quantified by measuring the absorbance of the reaction mixture at 450 nm using a Microplate auto reader EL311 (BioTek Instrument, Winooski Vt.).
The specific binding of biotinylated NAT12 to BK analogs and other peptides was assayed as described in Example 2A.

[4] = target: T2, NAT12 (SEQ ID NO:2), α-thrombin cleavage site on the thrombin receptor (Homo sapiens, UniProt P25116); assay: α-thrombin cleavage of NAT12 peptide (HPLC); format: biochemical; details: 1 mM peptide, 8 nM α-thrombin
T2 construct: spans amino acids 35-46 of the α-thrombin cleavage site on the thrombin receptor
Description: The peptide NAT12 (SEQ ID NO:2), which spans amino acids 35-46 of the α-thrombin cleavage site on the thrombin receptor (Vu et al., Cell 64, 1057 (1991), was also used to determine whether BK analogs blocked α-thrombin cleavage of the cloned receptor.
The cleavage studies were performed according to the method of Molino et al., J. Biol. Chem. 270, 11168 (1995). Briefly, NAT12 (SEQ ID NO:2) was dissolved in a solution of 0.01 M NaH2PO4 and 0.15 M NaCl, pH 7.4. The mixture was then incubated with 8 nM α-thrombin for one hour at 37° C. either in the absence (control) or presence of 1 mM of a BK analog. Following incubation, the mixture was applied to a Vyadec C-18 HPLC column in 0.1% trifluoroacetic acid and eluted with a gradient from 0% to 100% of 80% MeCN and 0.1% trifluoroacetic acid. The sizes of the separated products were confirmed by mass spectrometry.
NAT12 (SEQ ID NO:2) produced a single peak (peak 1) when analyzed by HPLC. […] The additional peaks, peaks 3 and 2, represent the cleavage products of NAT12.

[5] = Observations of the animals after bolus injection (blood pressure, pulse, platelet count, bleeding); format: in vivo, New Zealand white rabbits; details: rabbit, i.v. bolus
Description: (§2) Clearance studies were performed in New Zealand white rabbits weighing between 2.0 and 2.5 kg. Rabbits were premedicated according to the method of Michelson et al., J. Mol. Cell Cardiol. 20, 547 (1988) with 10 mg/kg 1 M xylazine and 10 mg/kg 1 M ketamine. After tracheostomy, intubation, and positive pressure ventilation done with room air (Harvard instruments), stage III surgical anesthesia was maintained with 20 mg/ml of intravenous pentobarbital. A carotid artery and a jugular vein were then exposed. A catheter was inserted into the exposed carotid artery for withdrawal of blood samples and monitoring the animal's blood pressure (Gould, Inc., Cardiovascular Products, Oxnard. Calif.). In a similar manner, a catheter was inserted into the exposed jugular vein for administering the anesthetic and BK analog.
(§3) A single intravenous infusion of BK analog was injected. The amount of BK analog injected was calculated from the weight of the animal such that the blood concentration was 1 mM peptide. For example: for a 2.5 kg rabbit, 7% of its weight gives an estimated blood volume of 175 ml. Accordingly, 89 mg of the control BK fragment SEQ ID NO:7 was injected (giving a 1 mM concentration in the 175 ml plasma). Depending upon the size of the animal, 75 to 90 mg peptide was injected. Blood samples were collected at 2, 4, 6, 8, 10, 20, 30, 40, 60, 90, and 120 minute intervals after infusion into a 0.013 M sodium citrate anticoagulant solution. Plasma was prepared from each of the blood samples collected over time by centrifugation of the blood samples at 10,000×g for two minutes. Aliquots of the plasmas were assayed for the presence of the BK analog antigen by the ELISA technique using a MARKIT-M [1-5] BK assay from Dainippon Pharmaceutical Co., Ltd., Osaka, Japan.

[6] = In vivo clearance after single intravenous infusion (plasma ELISA); design: species or system New Zealand white rabbits; details: rabbit; for half-life: single i.v. infusion
Description: as §2, §3

[7] = target: T3, FSPFR; assay: microtiter plate assay, plate-linked peptide, biotin-NAT12 detected with streptavidin-HRP
T3 construct: Control peptide
T3 peptide: FSPFR
Description: as §1, with “turbo-3,3',5,5'-tetramethylbenzidine” for “turbo-3,3′,5,5′-tetramethylbenzidine”
(§4) Peptides from a combinatorial library are linked to a microtiter plate and blocked with 1% BSA. Biotinylated-NAT12 is incubated with the microtiter plate. After washing, the presence of biotin-NAT12 attached to the matrix support expressing peptides is detected by incubation with Immu-noPure streptavidin horseradish peroxidase conjugate (Pierce Chemical Co., Rockville Ill.) followed by peroxidase-specific fast reacting substrate, turbo-3,3',5,5'-tetramethylbenzidine (turbo-TMB, Pierce Chemical Co., Rockville Ill.). After incubation for 5 min at room temperature, the color reaction of the turbo-TMB is stopped by the addition of 1 M phosphoric acid. The bound peptide is quantified by measuring the absorbance of the reaction mixture at 450 nm using a Microplate auto reader EL311 (BioTek Instrument, Winooski Vt.). Compounds which bind the NAT12 peptide are also assayed for the ability to inhibit platelet aggregation and the ability to inhibit calcium mobilization, using the assays described in Example 1.

[8] = target: T4, LNA7; assay: as above
T4 construct: Control peptide
T4 peptide: LNAENNA
Description: as §1, with “turbo-3,3',5,5'-tetramethylbenzidine” for “turbo-3,3′,5,5′-tetramethylbenzidine”
as §4

[9] = target: T5, RPPGC (not fully specified); assay: as above
T5 peptide: RPPGC
Description: as §1, with “turbo-3,3',5,5'-tetramethylbenzidine” for “turbo-3,3′,5,5′-tetramethylbenzidine”
as §4

[10] = target: T6, NAT12; assay: cell-based or functional assay
T6 chain: NATLDPRSFLLR

Arg-Pro
inhibition of γ-thrombin-induced platelet aggregation (in words) ([1]; human PRP): no inhibitory activity

Arg-Pro-Pro [RPP]
inhibition of α-thrombin-induced calcium mobilization in fibroblasts (FIG. 5) [2]: inhibited calcium mobilization; also recorded: inhibition
γ-thrombin-induced platelet aggregation at 50 μM peptide (FIG. 2) ([1]; 50 μM peptide, 27.5 nM γ-thrombin): abolish
fold better as an inhibitor than RPPGF ([1]; 100% inhibition of γ-thrombin-induced aggregation, same conditions): greater than 2.5 fold
inhibition of γ-thrombin-induced platelet aggregation (in words) ([1]; human PRP): showed inhibition
concentration that inhibited γ-thrombin-induced platelet aggregation 100% ([1]; mean±SD of 3 or 5 experiments, human PRP): 0.089 mM

Arg-Pro-Pro-Ala-Phe (RPPAF; bradykinin analog)
inhibition of γ-thrombin-induced platelet aggregation (in words) ([1]; human PRP): showed inhibition

Arg-Pro-Pro-Amide [RPP-Amide]
inhibition of γ-thrombin-induced platelet aggregation (in words) ([1]; human PRP): reduced ability

Arg-[dP]-Pro
inhibition of γ-thrombin-induced platelet aggregation (in words) ([1]; human PRP): reduced ability

FSPFR: peptide FSPFR (SEQ ID NO: 10) (bradykinin analog)
specific binding of biotinylated NAT12 to the peptide (FIG. 4) [3]: not

LNA7: non-BK analog peptide (SEQ ID NO:8) (LNAENNA; bradykinin analog)
specific binding of biotinylated NAT12 to the peptide (FIG. 4) [3]: not
inhibition of γ-thrombin-induced platelet aggregation ([1]; 1 mM peptide, 20 nM γ-thrombin, human PRP): unable to inhibit

RPPGC: peptide RPPGC (SEQ ID NO:9) (bradykinin analog)
specific binding of biotinylated NAT12 to the peptide (FIG. 4) [3]: specifically bound

RPPGF [RPPGF, Arg-Pro-Pro-Gly-Phe]
reduction of NAT12 peak 1 area after α-thrombin treatment ([4]; 1 h 37° C., without peptide 81%): 57%
NAT12 cleavage product peak 2, share of original peak area ([4]; without peptide 37%): 26%
NAT12 cleavage product peak 3, share of original peak area ([4]; without peptide 44%): 31%
bleeding at the surgical sites of cutdowns and intubations [5]: no abnormal bleeding
blood pressure, pulse, and platelet count [5]: remained stable
unfavorable effects following the bolus injection [5]: No unfavorable effects were observed
Cmax ([6]; New Zealand white, plasma, iv, single i.v. infusion 75 to 90 mg, ELISA, two of three rabbits, read-out: peak plasma concentration after infusion): 60 µg/mL
half-life ([6]; New Zealand white, plasma, iv, read-out: half-life of antigen clearance in plasma, first phase): 2.8 min
half-life ([6]; New Zealand white, plasma, iv, read-out: half-life of antigen clearance in plasma, second phase): 20 min
peak plasma concentration after infusion ([6]; single i.v. infusion 75 to 90 mg, ELISA, two of three rabbits): 0.120 mM

[dR]-Pro-Pro
inhibition of γ-thrombin-induced platelet aggregation (in words) ([1]; human PRP): reduced ability

B1: biotinylated NAT12 (peptide)
peptide: NATLDPRSFLLR
modifications: also: biotinylated (position not given here)
notes: It was in solution in the microtiter plate assay; also called biotin-NAT12
binding result [7]: no binding
binding result [8]: no binding
binding result [9]: binds

B2: Arg-Pro-Pro-Gly-Phe (RPPGF) (peptide)
peptide: RPPGF
modifications: not checked
cleavage product peak 2, as a share of the original NAT12 peak area, in the presence of 1 mM peptide [10]: 26%
cleavage product peak 3, as a share of the original NAT12 peak area, in the presence of 1 mM peptide [10]: 31%
reduction of the NAT12 HPLC peak area (peak 1) after alpha-thrombin in the presence of 1 mM peptide [10]: 57%

From patent publication US6982249B1, “Bradykinin analogs as selective inhibitors of cell activation” (The Regents of the University of Michigan, priority 1997, dated 2006)
